What was measured:
[1] = biological target: T1, PIM-3 (Homo sapiens, UniProt Q86V86); test: Protein PIM kinase assay (ADP Hunter Plus); format: biochemical; details: 100 μM ATP, 100 μM PIMtide
T1 construct: purchased Millipore 14-738
Description: (§1) PIM kinase activities were measured by using the commercial ADP Hunter™ Plus assay (DiscoveRx Ref. #33-016), a homogeneous assay measuring ADP accumulation, as a universal product of kinase activity. PIM-1 and PIM-2 proteins were obtained by purification as it is described by Martinez-Gonzalez et. al. Eur. J. Med Chem. 2019, 168, 87-109 and PIM-3 was acquired from Millipore (Cat #14-738). The assay was done following general manufacturer recommendations and adapting protein and substrates concentrations to optimal conditions. Kinase buffer was 15 mM HEPES, pH 7.4, 20 mM NaCl, 1 mM EGTA, 0.02% Tween-20, 10 mM MgCl2 and 0.1 mg/mL LBGG (bovine y-globulin). All PIM kinases assays were done at 100 μM PIM tide (ARKRRRHPSGPPTA), as peptide substrate, and 100 μM ATP. Protein concentration was 50, 350 and 200 pg/μl for PIM-1, 2 and 3, respectively. In order to calculate the IC50 of described compounds, serial 1:3 dilutions were prepared and the reaction started by addition of ATP. Incubation was done for 1 h at 25° C. Reagents A and B (DiscoveRx) were sequentially added to the wells and plates were incubated for 30 min at 37° C. Fluorescence counts were read in a Victor instrument (Perkin Elmer) with the recommended settings (544 and 580 nm as excitation and emission wavelengths, respectively). Values were plot against inhibitor concentration and fit to a sigmoid dose-response curve using Activity Base software from IDBS.

[2] = biological target: T2, PIM-1 (Homo sapiens, UniProt P11309); test: Protein PIM kinase assay (ADP Hunter Plus); format: biochemical; details: 100 μM ATP, 100 μM PIMtide
T2 construct: made in house
Description: as §1

[3] = biological target: T3, PIM-2 (Homo sapiens, UniProt Q9P1W9); test: Protein PIM kinase assay (ADP Hunter Plus); format: biochemical; details: 100 μM ATP, 100 μM PIMtide
T3 construct: made in house
Description: as §1

[4] = tested on: BAD S112 phosphorylation in H1299 cells overexpressing PIM-1 (H1299Pim1); test: BAD S112 phosphorylation inhibition assay (in Cell ELISA); format: cell-based; details: Homo sapiens, NCI-H1299, 4 hours, medium without FBS, read-out: BAD PH 1299PIM 1 ELIWO
Description: The efficacy of the compounds of the invention on the inhibition of BAD phosphorylation was measured by an in Cell ELISA.
Materials: H1299 cells overexpressing PIM-1 (H1299Pim1). DMSO Plates: 96-well-Polystyrene, Untreated, Round-Bottom plates from Costar (Cat #3797). Cell Plates: 96-Flat bottom biocoated with Poly-D-Lysin plates with lid from Becton Dickinson (Cat #354651). Cell Culture Medium: DMEM high glucose, 10% Fetal Bovine Serum, 2 mM L-Glutamine, P/S. Antibodies: phospho BAD S112 antibody from Cell Signaling (cat. #9291S), anti-rabbit conjugated with peroxidase from Amersham (cat. #3619). Reagent: SuperSignal ELISA femto from Pierce (cat. #1001110).
Procedure: Cells were seeded in 15000 cells per 200 μl per well into 96-well plates and incubated for 16 h at 37° C., 5% CO2. On day two, nine serial 1:2 compound dilutions were made in DMSO in a 96-well plate. The compounds were added to duplicate wells in 96-well cell plates using a FX BECKMAN robot (Beckman Coulter) and were incubated at 37° C. under CO2 atmosphere in medium without fetal bovine serum (FBS). After 4 hours, relative levels of BAD S112 phosphorylation were measured in Cell ELISA using SuperSignal ELISA Femto substrate (Pierce) and read on VICTOR (Perkin Elmer). EC50 values were calculated using ActivityBase from IDBS.

[5] = tested on: DU145; test: Combination antiproliferation with Example 1; format: cell-based; design: key to Synergy: ++++ indicates a very strong synergistic effect; +++ a strong synergistic effect; ++ a synergistic effect; details: agent in combination with Example 1, DU145, Prostate Cancer
Description: (§2) The cells were harvested just before reaching confluency, counted with a haemocytometer and diluted with media. Cells were then seeded in 96-well microtiter plates at a density of 4,000 cells/well. […] Compounds were weighed out and diluted with DMSO to a final concentration of 10 mM. From here a “mother plate” with serial dilutions was prepared at 200× the final concentration in the culture. The final concentration of DMSO in the tissue culture media should not exceed 0.5%. The appropriate volume of the compound solution (2 μl) was added automatically (Beckman FX 96 tip) to 0.2 ml media to make it up to the final concentration for each drug. Each concentration was assayed in duplicate. Cells were exposed to the compounds for 72 h and then processed for CellTiter-Glo® Luminescent Cell Viability Assay (Promega) read out according to manufacturer's Instruction and read on EnVision (Perkin Elmer). GI50 values were calculated using ActivityBase from IDBS. […] A combination index score was calculated by the Chou and Talalay method (CalcuSyn software, Biosoft). The combination partner compounds were as follows: • the PI3K inhibitor pictisilib (GDC-0941); • the MEK inhibitor merdametinib (PD-0325901); and the EGFR and ErbB2 inhibitor lapatinib

[6] = tested on: T47D; test: Combination antiproliferation with Example 1; format: cell-based; design: key to Synergy: ++++ indicates a very strong synergistic effect; +++ a strong synergistic effect; ++ a synergistic effect; details: agent in combination with Example 1, T47D, Breast Cancer
Description: (§3) The cells were harvested just before reaching confluency, counted with a haemocytometer and diluted with media. Cells were then seeded in 96-well microtiter plates at a density of 4,000 cells/well. Cells were incubated for 24 hours before adding the compounds.
(§4) Compounds were weighed out and diluted with DMSO to a final concentration of 10 mM. From here a “mother plate” with serial dilutions was prepared at 200× the final concentration in the culture. The final concentration of DMSO in the tissue culture media should not exceed 0.5%. The appropriate volume of the compound solution (2 μl) was added automatically (Beckman FX 96 tip) to 0.2 ml media to make it up to the final concentration for each drug.
(§5) Each concentration was assayed in duplicate. Cells were exposed to the compounds for 72 h and then processed for CellTiter-Glo® Luminescent Cell Viability Assay (Promega) read out according to manufacturer's Instruction and read on EnVision (Perkin Elmer). GI50 values were calculated using ActivityBase from IDBS.
(§6) A combination index score was calculated by the Chou and Talalay method (CalcuSyn software, Biosoft).

[7] = tested on: HCT116; test: Combination antiproliferation with Example 1; format: cell-based; design: key to Synergy: ++++ indicates a very strong synergistic effect; +++ a strong synergistic effect; ++ a synergistic effect; details: agent in combination with Example 1, HCT116, Colon Cancer
Description: as §3, §4, §5, §6

[8] = tested on: A549; test: Combination antiproliferation with Example 1; format: cell-based; design: key to Synergy: ++++ indicates a very strong synergistic effect; +++ a strong synergistic effect; ++ a synergistic effect; details: agent in combination with Example 1, A549, Lung Cancer
Description: as §3, §4, §5, §6

[9] = tested on: Jeko-1; test: Combination antiproliferation with Example 1; format: cell-based; design: key to Synergy: ++++ indicates a very strong synergistic effect; +++ a strong synergistic effect; ++ a synergistic effect; details: agent in combination with Example 1, Jeko-1, Mantle Cell Lymphoma
Description: as §3, §4, §5, §6

[10] = tested on: HT29; test: Combination antiproliferation with Example 1; format: cell-based; design: key to Synergy: ++++ indicates a very strong synergistic effect; +++ a strong synergistic effect; ++ a synergistic effect; details: agent in combination with Example 1, HT29, Colon Cancer
Description: as §2

[11] = tested on: SKMEL19; test: Combination antiproliferation with Example 1; format: cell-based; design: key to Synergy: ++++ indicates a very strong synergistic effect; +++ a strong synergistic effect; ++ a synergistic effect; details: agent in combination with Example 1, SKMEL19, Melanoma
Description: as §2

[12] = tested on: U87MG; test: Combination antiproliferation with Example 1; format: cell-based; design: key to Synergy: ++++ indicates a very strong synergistic effect; +++ a strong synergistic effect; ++ a synergistic effect; details: agent in combination with Example 1, U87MG, Glioblastoma
Description: as §3, §4, §5, §6

[13] = tested on: KG-1; test: In vitro potency against leukemia cell lines (CellTiter Glo); format: cell-based; details: Homo sapiens, 72 hours, read-out: absolute IC50 KG-1
Description: (§7) To prepare the complete medium FBS and appropriate additives were added according to the information sheet provided by the vendor and mixed gently. The cell name and complete medium and passage number marked on the flask were checked, and the culture medium removed and discarded using a vacuum pump. […] 3.0 ml of Trypsin-EDTA solution was added to the flask and the cells observed under an inverted microscope until cell layer is dispersed. 8.0 ml of complete growth medium was added and the cells aspirated by gently pipetting. The cell suspension was transferred to a centrifuge tube and centrifuged at 800-1000 rpm for 3-5 minutes. The supernatant was discarded using a vacuum pump, and an appropriate volume of complete medium added. The cell pellet was suspended by gently pipetting, and the cell numbers counted with Vi-cell XR and the cells adjusted to appropriate density. 100 μL of cell suspension to 96-well opaque-walled clear bottom plates was added according to the planned plate layout and the plates placed in the CO2 incubator overnight.
(§8) c. […] Meanwhile the day 0 plate was measured by Cell TiterGlo as listed below.
(§9) d. Cells were incubated with the compounds for 72 h at 5% CO2, 37° C.
(§10) The plate and its contents were equilibrated to room temperature for approximately 30 minutes, after which 100 μL of CellTiter-Glo reagent was added to the assay plate by Multidrop Combi instrument and the contents mixed for 10 minutes on an orbital shaker to induce cell lysis. The plate was allowed to incubate at room temperature for 10 minutes to stabilize luminescent signal and the clear bottom pasted with white back seal and the luminescence recorded with Enspire with the settings: Luminescence, measurement time 0.1 ms.
(§11) In all cases, the incubation time was 72 hours and the cell lines were grown as a suspension. The seeding density was […] in a 96 well plate.

[14] = tested on: OCI-M1; test: as above; format: cell-based; details: 72 hours, read-out: absolute IC50 OCI-M1
Description: as §7, §8, §9, §10, §11

[15] = tested on: T-47D; test: In vitro potency against breast cancer cell lines (CellTiter Glo); format: cell-based; details: Homo sapiens, T47D, 72 h; read-out: absolute IC50 T-47D
Description: as §7, §8, §9
(§12) The CellTiter-Glo buffer was thawed and equilibrated to room temperature prior to use. The lyophilized CellTiter-Glo substrate was equilibrated to room temperature prior to use. The appropriate volume of CellTiter-Glo buffer was transferred into the amber bottle containing CellTiter-Glo substrate to reconstitute the lyophilized enzyme/substrate mixture, thereby forming the CellTiter-Glo reagent. Mixing was carried out by gently vortexing, swirling or by inverting the contents to obtain a homogeneous solution, the CellTiter-Glo substrate going into solution easily in less than one minute.
as §10

[16] = tested on: HCC1143; test: as above; format: cell-based; details: Homo sapiens, HCC1143, 72 h; read-out: absolute IC50 HCC1143
Description: as §7, §8, §9, §12, §10

[17] = tested on: BT-474; test: as above; format: cell-based; details: Homo sapiens, BT-474, 72 h; read-out: absolute IC50 BT-474
Description: as §7, §8, §9, §12, §10

T2 sequence (P11309 whole entry): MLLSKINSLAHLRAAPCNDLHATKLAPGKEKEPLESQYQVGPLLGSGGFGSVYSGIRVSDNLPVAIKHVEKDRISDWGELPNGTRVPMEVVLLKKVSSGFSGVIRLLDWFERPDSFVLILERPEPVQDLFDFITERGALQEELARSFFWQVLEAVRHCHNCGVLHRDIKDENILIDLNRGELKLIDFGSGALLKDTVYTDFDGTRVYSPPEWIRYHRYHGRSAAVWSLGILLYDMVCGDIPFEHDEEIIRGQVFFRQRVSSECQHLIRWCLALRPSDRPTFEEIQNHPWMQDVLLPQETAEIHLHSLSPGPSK
T3 sequence (Q9P1W9 whole entry): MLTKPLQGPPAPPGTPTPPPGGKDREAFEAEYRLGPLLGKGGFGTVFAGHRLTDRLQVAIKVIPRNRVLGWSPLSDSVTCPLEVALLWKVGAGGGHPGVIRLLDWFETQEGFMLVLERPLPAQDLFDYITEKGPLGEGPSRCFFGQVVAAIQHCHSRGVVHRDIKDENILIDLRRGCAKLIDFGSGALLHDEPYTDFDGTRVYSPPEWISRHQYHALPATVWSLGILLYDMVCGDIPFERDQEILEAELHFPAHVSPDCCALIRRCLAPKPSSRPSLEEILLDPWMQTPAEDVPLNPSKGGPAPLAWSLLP

Row | Compound | IC50 [1] [nM] | IC50 [2] [nM] | IC50 [3] [nM] | EC50 [4] [nM] | C.I. (combination index) [5] | Synergy [5] | C.I. (combination index) [11] | Synergy [11] | further results
1 | CN1CCOc2c1c(N[C@H]1CC[C@@](C)(O)CC1)nn1c(-c3ccc(F)c(C(F)(F)F)c3)nnc21 [Example 2, 4-[3-(4-Fluoro-3-trifluoromethyl-phenyl)-6-methyl-7,8-dihydro-6H-9-oxa-1,2,3a,4,6-pentaaza-cyclopenta[a]naphthalen-5-ylamino]-1-methyl-cyclohexanol] | 1 to 5 | < 1 | 1 to 5 | 7.11 | – | – | – | – | –
2 | CC1(O)CCC(Nc2nn3c(-c4cccc(OC(F)(F)F)c4)nnc3c3c2CCCO3)CC1 (centres unmarked) [Example 3, 1-Methyl-4-[3-(3-trifluoromethoxy-phenyl)-7,8-dihydro-6H-9-oxa-1,2,3a,4-tetraaza-cyclopenta[a]naphthalen-5-ylamino]-cyclohexanol] | 1 to 5 | < 1 | 5 to 10 | 4.15 | – | – | – | – | –
3 | CS(=O)(=O)CCNCc1ccc(-c2ccc3ncnc(Nc4ccc(OCc5cccc(F)c5)c(Cl)c4)c3c2)o1 [Lapatinib, lapatinib] | – | – | – | – | 0.52 | ++ | – | – | C.I. (combination index) [6]: 0.27; Synergy [6]: +++; C.I. (combination index) [7]: 0.51; Synergy [7]: ++; C.I. (combination index) [8]: 0.47; Synergy [8]: ++; C.I. (combination index) [9]: 0.70; Synergy [9]: ++
4 | O=C(NOC[C@H](O)CO)c1ccc(F)c(F)c1Nc1ccc(I)cc1F [Merdametinib, merdametinib] | – | – | – | – | 0.55 | ++ | 0.038 | ++++ | C.I. (combination index) [10]: 0.62; Synergy [10]: ++
5 | CS(=O)(=O)N1CCN(Cc2cc3nc(-c4cccc5[nH]ncc45)nc(N4CCOCC4)c3s2)CC1 [Pictisilib, pictisilib] | – | – | – | – | 0.24 | +++ | 0.54 | ++ | C.I. (combination index) [12]: 0.46; Synergy [12]: ++
6 | CN[C@@H]1C[C@H]2O[C@@](C)([C@@H]1OC)n1c3ccccc3c3c4c(c5c6ccccc6n2c5c31)C(=O)NC4 [Staurosporine] | – | – | – | – | – | – | – | – | IC50 [13]: 23.2 nM; IC50 [14]: 48.4 nM; IC50 [15]: 219 nM; IC50 [16]: 11 nM; IC50 [17]: 76.6 nM
